Measured values taken from patent US7544701B2, “Sulfonyldihydrobenzimidazolone compounds as 5-hydroxytryptamine-6 ligands” (Wyeth, priority 2003, dated 2009).

target: T1, human cloned 5-HT6 receptors (Homo sapiens, UniProt P50406); assay: 5-HT6 binding affinity ([3H]-LSD displacement, membranes of Hela cells expressing human cloned 5-HT6 receptors); details: [3H]-LSD 3.0 nM, 120 min, room temperature, Hela cell membranes
T1 construct: expressed in transfected cells; host or cells: Hela cells
Method: The affinity of test compounds for the serotonin 5-HT6 receptor is evaluated in the following manner. Cultured Hela cells expressing human cloned 5-HT6 receptors are harvested and centrifuged at low speed (1,000×g) for 10.0 min to remove the culture media. The harvested cells are suspended in half volume of fresh physiological phosphate buffered saline solution and recentrifuged at the same speed. This operation is repeated. The collected cells are then homogenized in ten volumes of 50 mM Tris.HCl (pH 7.4) and 0.5 mM EDTA. The homogenate is centrifuged at 40,000×g for 30.0 min and the precipitate is collected. The obtained pellet is resuspended in 10 volumes of Tris.HCl buffer and recentrifuged at the same speed. The final pellet is suspended in a small volume of Tris.HCl buffer and the tissue protein content is determined in aliquots of 10-25 μl volumes. Bovine Serum Albumin is used as the standard in the protein determination according to the method described in Lowry et al., J. Biol. Chem., 193:265 (1951). The volume of the suspended cell membranes is adjusted to give a tissue protein concentration of 1.0 mg/ml of suspension. The prepared membrane suspension (10 times concentrated) is aliquoted in 1.0 ml volumes and stored at −70° C. until used in subsequent binding experiments.
Binding experiments are performed in a 96 well microtiter plate format, in a total volume of 200 μl. […] The test compounds are added in 20.0 μl volume.
The reaction is allowed to proceed in the dark for 120 min at room temperature, at which time, the bound ligand-receptor complex is filtered off on a 96 well unifilter with a Packard Filtermate® 196 Harvester. The bound complex caught on the filter disk is allowed to air dry and the radioactivity is measured in a Packard TopCount® equipped with six photomultiplier detectors, after the addition of 40.0 μl Microscint®-20 scintillant to each shallow well. The unifilter plate is heat-sealed and counted in a PackardTopCount® with a tritium efficiency of 31.0%.
Binding in the presence of varying concentrations of test compound is expressed as a percentage of specific binding in the absence of test compound. The results are plotted as log % bound versus log concentration of test compound. […] A linear regression line of data points is plotted, from which the IC50 value is determined and the Ki value is determined based upon the following equation: Ki=IC50/(1+L/KD) where L is the concentration of the radioactive ligand used and KD is the dissociation constant of the ligand for the receptor, both expressed in nM.

T1 sequence (P50406 whole entry): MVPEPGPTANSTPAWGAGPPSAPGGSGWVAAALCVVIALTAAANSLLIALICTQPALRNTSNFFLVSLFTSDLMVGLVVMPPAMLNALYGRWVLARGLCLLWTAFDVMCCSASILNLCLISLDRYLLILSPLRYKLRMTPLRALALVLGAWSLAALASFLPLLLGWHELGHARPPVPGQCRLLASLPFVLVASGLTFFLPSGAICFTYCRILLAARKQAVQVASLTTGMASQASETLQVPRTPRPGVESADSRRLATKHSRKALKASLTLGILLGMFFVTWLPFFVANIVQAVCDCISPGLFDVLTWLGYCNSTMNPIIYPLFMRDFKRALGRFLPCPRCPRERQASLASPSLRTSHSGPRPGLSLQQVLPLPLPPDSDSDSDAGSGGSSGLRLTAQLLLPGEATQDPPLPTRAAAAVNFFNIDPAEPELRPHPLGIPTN

**Q.** Which Ki does the source give for `Cc1nc(S(=O)(=O)n2c(=O)n(C3=CCNCC3)c3ccccc32)cn1C` [Example 52, 1-[(1,2-dimethyl-1H-imidazol-4-yl)sulfonyl]-3-(1,2,3,6-tetrahydropyridin-4-yl)-1,3-dihydro-2H-benzimidazol-2-one] here?
**A.** The Ki was 133 nM.

**Q.** How did the Ki turn out when `Cc1nn(C)c(Cl)c1S(=O)(=O)n1c(=O)n(C2=CCNCC2)c2ccccc21` [Example 53, 1-[(5-chloro-1,3-dimethyl-1H-pyrazol-4-yl)sulfonyl]-3-(1,2,3,6-tetrahydropyridin-4-yl)-1,3-dihydro-2H-benzimidazol-2-one] was run?
**A.** The Ki was 28 nM.

**Q.** How did the Ki turn out when `Cc1noc(C)c1S(=O)(=O)n1c(=O)n(C2=CCNCC2)c2ccccc21` [Example 54, 1-[(3,5-dimethylisoxazol-4-yl)sulfonyl]-3-(1,2,3,6-tetrahydropyridin-4-yl)-1,3-dihydro-2H-benzimidazol-2-one] was run?
**A.** The Ki was 51 nM.

**Q.** `O=c1n(C2=CCNCC2)c2ccccc2n1S(=O)(=O)c1cccc2nsnc12` [Example 55, 1-(2,1,3-benzothiadiazol-4-ylsulfonyl)-3-(1,2,3,6-tetrahydropyridin-4-yl)-1,3-dihydro-2H-benzimidazol-2-one] was tested. Which Ki did it give?
**A.** Its Ki is 12 nM.
